Broadly, the logD is the decadic logarithm of the distribution of all forms, ionised or not, between an organic phase and buffer at a given pH. Lower therefore signals lower lipophilicity. One may read the IC50 as the concentration that gives 50% inhibition. In general, pIC50 refers to the negative decadic logarithm of the IC50, by convention in mol/L. For orientation: EC50 means the concentration at which the effect is half-maximal. A lower EC50 goes with greater potency.

Data set [1] can be described thus: Partition coefficient (logD7.4). The settings on record: octanol/water, pH 7.4.
Data set [2] deals with 5-hydroxytryptamine receptor 1D (Sus scrofa, UniProt P79400). Put plainly: Displacement of radioligand [3H]5-HT binding to 5-hydroxytryptamine 1D receptor in pig caudate membrane. It is filed as cell membranes.
Sequence of 5-hydroxytryptamine receptor 1D (P79400 whole entry): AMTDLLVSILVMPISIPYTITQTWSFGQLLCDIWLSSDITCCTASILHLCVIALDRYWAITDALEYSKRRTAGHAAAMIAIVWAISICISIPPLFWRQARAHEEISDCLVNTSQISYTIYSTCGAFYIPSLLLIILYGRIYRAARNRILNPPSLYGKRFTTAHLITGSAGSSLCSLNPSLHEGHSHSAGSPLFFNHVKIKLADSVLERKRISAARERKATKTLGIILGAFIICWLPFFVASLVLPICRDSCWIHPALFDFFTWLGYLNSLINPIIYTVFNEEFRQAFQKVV
For data set [3], the target named is T1, Serotonin 3 (5-HT3) receptor (Rattus norvegicus, UniProt P35563+Q9JJ16).
T1 sequence (P35563 whole entry): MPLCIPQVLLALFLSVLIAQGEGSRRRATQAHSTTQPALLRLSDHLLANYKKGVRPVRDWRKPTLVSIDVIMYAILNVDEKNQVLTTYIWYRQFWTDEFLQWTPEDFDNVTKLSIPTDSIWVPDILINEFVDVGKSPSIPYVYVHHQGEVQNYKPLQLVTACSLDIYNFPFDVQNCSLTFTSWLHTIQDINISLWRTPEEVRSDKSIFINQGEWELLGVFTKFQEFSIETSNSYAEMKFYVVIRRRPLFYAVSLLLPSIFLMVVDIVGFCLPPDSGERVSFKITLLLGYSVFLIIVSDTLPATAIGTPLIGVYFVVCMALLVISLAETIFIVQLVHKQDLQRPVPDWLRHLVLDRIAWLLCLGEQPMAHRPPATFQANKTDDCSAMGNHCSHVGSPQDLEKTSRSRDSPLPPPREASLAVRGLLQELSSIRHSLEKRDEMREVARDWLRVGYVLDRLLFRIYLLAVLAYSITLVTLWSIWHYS
T1 sequence (Q9JJ16 whole entry): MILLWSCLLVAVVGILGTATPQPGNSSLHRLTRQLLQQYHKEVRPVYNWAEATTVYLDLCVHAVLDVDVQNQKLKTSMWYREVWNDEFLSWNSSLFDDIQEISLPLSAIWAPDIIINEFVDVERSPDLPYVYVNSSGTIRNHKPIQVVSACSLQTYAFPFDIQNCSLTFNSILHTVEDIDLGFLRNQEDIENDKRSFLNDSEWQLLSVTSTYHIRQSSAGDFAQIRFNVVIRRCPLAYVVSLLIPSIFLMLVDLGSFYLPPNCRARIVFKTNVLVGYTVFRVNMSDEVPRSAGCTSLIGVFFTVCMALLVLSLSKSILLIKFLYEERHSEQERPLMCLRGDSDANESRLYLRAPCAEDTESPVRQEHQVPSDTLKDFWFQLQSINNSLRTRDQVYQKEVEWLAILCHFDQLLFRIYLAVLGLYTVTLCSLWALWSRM
In words: Displacement of [3H]-Q-ICS 205-930 from rat cortex homogenate 5-hydroxytryptamine 3 receptor. (Loss of bound radioactivity is the signal in a displacement assay; it reports binding, not function.)

Data set [4] deals with Serotonin 2 (5-HT2) receptor (Rattus norvegicus, UniProt P30994+P08909+P14842). In words: isplacement of [3H]DOB from rat cortex homogenate 5-hydroxytryptamine 2 receptor.
The species named for data set [5] is Oryctolagus cuniculus. In words: Relative maximum is the relative efficacy for serotonergic activity on rabbit saphenous vein with respect to 1 uM 5-HT. Type of data set: functional.
Data set [6] is filed under the species Oryctolagus cuniculus. Put plainly: Serotonergic activity was assessed in vitro on the New Zealand white rabbit saphenous vein preparation. Type of data set: functional.
The species entered for data set [7] is Oryctolagus cuniculus. In words: Relative maximum is the relative efficacy with respect to 1 uM 5-HT. Type of data set: functional.

Compound `CNS(=O)(=O)Cc1ccc2[nH]cc(CCN(C)C)c2c1` showed a logD in data set [1] of -1.17.

With `NCCc1c[nH]c2ccc(C(N)=O)cc12`, the IC50 in data set [2] is 3.98 nM.

As to `CN(C)CCc1c[nH]c2ccc(-c3nc(Cc4ccc(NS(C)(=O)=O)cc4)no3)cc12`, the half-inhibitory concentration (IC50) in data set [2] is 1.26 nM. The compound further had a logD in data set [1] of 1.25.

Turning to `NCCc1c[nH]c2ccc(-c3nc(Cc4ccccc4)no3)cc12`, the IC50 is over 10000 nM in data set [3] and 6.31 nM in data set [2]. This compound also displayed a logD in data set [1] of 1.32. The negative-log IC50 (pIC50) in data set [4] turned out to be 5.9.

Take `CNC(=O)c1ccc(-c2noc(-c3ccc4[nH]cc(CCN)c4c3)n2)cc1`: the concentration for half-maximal inhibition (IC50) in data set [2] is 0.794 nM.

Regarding `Cc1noc(CCCc2ccc3[nH]cc(CCN)c3c2)n1`, the IC50 in data set [2] is 5.01 nM.

With `CCc1noc(-c2ccc3[nH]cc(CCN)c3c2)n1`, in data set [2], the half-inhibitory concentration (IC50) was 12.6 nM. Further, the logD in data set [1] was 0.13.

For `CC(=O)Nc1ccc(Cc2noc(-c3ccc4[nH]cc(CCN)c4c3)n2)cc1`, the Relative maximum in the data set listed under Oryctolagus cuniculus [5] was determined as 1. Besides, the IC50 was over 10000 nM in data set [3] and 0.501 nM in data set [2]. Also, the logD in data set [1] was determined as 0.48. The compound further returned a negative-log IC50 (pIC50) in data set [4] of 6.4. For the same compound, in the data set listed under Oryctolagus cuniculus [6], the response was half-maximal at 12.6 nM (EC50).

As for `NCCc1c[nH]c2ccc(-c3nc(N)no3)cc12`, the IC50 in data set [2] was 50.1 nM. This compound gave a logD in data set [1] of -0.72.

Consider `NCCc1c[nH]c2ccc(Cc3nc(Cc4ccccc4)no3)cc12`, for which the IC50 in data set [2] was 31.6 nM. Also, the logD in data set [1] came to 0.42.

For `COc1ccccc1Cc1noc(-c2ccc3[nH]cc(CCN)c3c2)n1`, the IC50 in data set [2] is 15.8 nM. The compound further displayed a logD in data set [1] of 1.38.

`NCCc1c[nH]c2ccc(Cc3nc(-c4ccccc4)no3)cc12`: the IC50 in data set [2] was 20 nM.

With `CN(C)CCc1c[nH]c2ccc(CCc3nc(N)no3)cc12`, the figures for the half-maximal inhibitory concentration (IC50) in data set [3] and in data set [2] were 6310 nM and 12.6 nM, respectively. The compound further showed a pIC50 in data set [4] of 6.7. Also, the half-maximal effective concentration (EC50) in the data set filed under Oryctolagus cuniculus [6] was 200 nM.

In turn, `CN(C)CCc1c[nH]c2ccc(-c3nc(Cc4ccccc4)no3)cc12` had an IC50 in data set [2] of 6.31 nM.

As for `CS(=O)(=O)Nc1ccc(Cc2noc(Cc3ccc4[nH]cc(CCN)c4c3)n2)cc1`, the IC50 in data set [2] was 3.16 nM. For the same compound, the logD in data set [1] is -0.54.

Compound `CN(C)CCc1c[nH]c2ccc(-c3nc(N)no3)cc12` had an IC50 in data set [2] of 79.4 nM. The compound also had a logD in data set [1] of 0.2.

`Cc1noc(-c2ccc3[nH]cc(CCN)c3c2)n1` showed a Relative maximum in the data set filed under Oryctolagus cuniculus [5] of 1. Besides, the IC50 in data set [3] was over 10000 nM; in data set [2], 10 nM. The logD in data set [1] is -0.37. In data set [4], this compound returned a pIC50 of 5.8. Besides, in the data set filed under Oryctolagus cuniculus [6], it took 251 nM to reach a half-maximal effect (EC50).

`CC(=O)NCc1noc(-c2ccc3[nH]cc(CCN)c3c2)n1` showed an IC50 in data set [2] of 20 nM.

As to `NCCc1c[nH]c2ccc(Cc3nc(N)no3)cc12`, the IC50 was over 10000 nM in data set [3] and 20 nM in data set [2]. The pIC50 in data set [4] was 6.1. Moreover, the EC50 in the data set filed under Oryctolagus cuniculus [6] is 158 nM.

Compound `CN(C)CCc1c[nH]c2ccc(Cc3nc(N)ns3)cc12` displayed a Relative maximum in the data set listed under Oryctolagus cuniculus [5] of 1.1. For the same compound, the figures for the IC50 in data set [3] and in data set [2] were 2400 nM and 2 nM, respectively. The pIC50 in data set [4] was determined as 6.9.

Consider `NCCc1c[nH]c2ccc(CCCc3nc(Cc4ccccc4)no3)cc12`, for which, in data set [2], the IC50 was 1.58 nM.

Compound `CNC(=O)c1ccc(-c2noc(Cc3ccc4[nH]cc(CCN(C)C)c4c3)n2)cc1` had a 50% inhibitory concentration (IC50) in data set [2] of 2 nM. In data set [1], the logD came out at 1.45.

`NCCc1c[nH]c2ccc(-c3nc(C4CC4)no3)cc12`: the IC50 in data set [3] is over 10000 nM; in data set [2], 7.94 nM. In data set [1], this compound had a logD of 0.6. The pIC50 in data set [4] was found to be 5.6.

`CN(C)CCc1c[nH]c2ccc(CCCc3nc(Cc4ccccc4)no3)cc12` showed an IC50 in data set [2] of 12.6 nM.

`CN(C)CCc1c[nH]c2ccc(Cc3nc(-c4ccc(NS(C)(=O)=O)cc4)no3)cc12` showed an IC50 in data set [2] of 10 nM.

On to `Cc1cnc(-c2ccc3[nH]cc(CCN(C)C)c3c2)o1`, for which the IC50 in data set [2] is 7.94 nM.

Regarding `NCCc1c[nH]c2ccc(CCc3nc(N)no3)cc12`, the IC50 in data set [2] is 10 nM. In data set [1], this compound yielded a logD of -1.51.

Consider `CC(=O)Nc1ccc(Cc2noc(Cc3ccc4[nH]cc(CCN)c4c3)n2)cc1`, for which, in data set [2], the IC50 is 2.51 nM. The compound also returned a pH-dependent lipophilicity (logD) in data set [1] of -0.36.

With `CN(C)CCc1c[nH]c2ccc(Cc3nc(N)no3)cc12`, the IC50 in data set [3] is 2510 nM; in data set [2] it was 25.1 nM. The compound also yielded a pIC50 in data set [4] of 6.4.

Regarding `Cc1noc(Cc2ccc3[nH]cc(CCN(C)C)c3c2)n1`, the IC50 is 3980 nM in data set [3] and 50.1 nM in data set [2]. The negative logarithm of the IC50 (pIC50) in data set [4] was 5.6.

For `COc1ccc(Cc2noc(-c3ccc4[nH]cc(CCN)c4c3)n2)cc1`, the IC50 in data set [3] is over 10000 nM; in data set [2], 0.794 nM. The compound further registered a pIC50 in data set [4] of 6.

As to `CNS(=O)(=O)c1ccc(Cc2noc(-c3ccc4[nH]cc(CCN)c4c3)n2)cc1`, the Relative maximum in the data set filed under Oryctolagus cuniculus [5] is 0.9. Further, the IC50 in data set [2] is 0.251 nM. The compound also yielded a logD in data set [1] of 0.25. Also, a half-maximal response in the data set filed under Oryctolagus cuniculus [6] (EC50) required 12.6 nM.

Regarding `NCCc1c[nH]c2ccc(CCc3nc(Cc4ccccc4)no3)cc12`, the IC50 was over 10000 nM in data set [3] and 5.01 nM in data set [2]. In addition, the pIC50 in data set [4] came to 6.6.

`Cc1noc(Cc2ccc3[nH]cc(CCN)c3c2)n1`: the IC50 was over 10000 nM in data set [3] and 31.6 nM in data set [2]. Moreover, in data set [1], the logD is -1.7. In addition, in data set [4], the negative logarithm of the IC50 (pIC50) is recorded as 5.5.

In data set [2], `CN(C)CCc1c[nH]c2ccc(Cc3nc(Cc4ccc(NS(C)(=O)=O)cc4)no3)cc12` gave an IC50 of 31.6 nM. The compound further yielded a logD in data set [1] of 0.5.

Compound `COc1cccc(Cc2noc(-c3ccc4[nH]cc(CCN)c4c3)n2)c1` showed an IC50 in data set [2] of 1.26 nM.

In data set [2], `NCCc1c[nH]c2ccc(-c3nc(-c4ccccc4)no3)cc12` gave an IC50 of 79.4 nM.

As to `CN(C)CCc1c[nH]c2ccc(CCc3nc(Cc4ccccc4)no3)cc12`, in data set [2], the IC50 is 12.6 nM.

In the data set listed under Oryctolagus cuniculus [5], `CS(=O)(=O)Nc1ccc(Cc2noc(-c3ccc4[nH]cc(CCN)c4c3)n2)cc1` [L-694247] returned a Relative maximum of 1. The results for the IC50 in data set [3] and in data set [2] were over 10000 nM and 0.316 nM, respectively. Also, the logD in data set [1] came out at 0.25. The pIC50 in data set [4] was 6.5. In the data set filed under Oryctolagus cuniculus [6], this compound showed an EC50 of 15.8 nM.

`NCCc1c[nH]c2ccc(O)cc12` [SEROTONIN] had an IC50 in data set [2] of 10 nM. Moreover, in the data set filed under Oryctolagus cuniculus [7], the Relative maximum is 1.
